Reference: patent US8216973B2, “2-[(1H-pyrazole-4-ylmethyl)-sulfonyl]-oxazole-derivative, 2-[(1H-pyrazole-4-ylmethyl)-sulfanyl]-oxazole-derivatives, and chiral 2-[(1H-pyrazole-4-ymethyl)sulfinyl]oxazole derivatives, methods for the production thereof, and use thereof as herbicides and plant growth regulators” (Bayer Cropscience AG, priority 2008, dated 2012)

Experiments:
[1] = test system: harmful plants such as Avena fatua, Stellaria media, Echinochloa crus galli, Lolium multiflorum, Setaria viridis, Amaranthus retroflexus, Veronica persica …; assay: Pre-emergence herbicidal effect, greenhouse pot test; type: in vivo, monocotyledonous or dicotyledonous weed plants; settings: pre-emergence method, application rate of 0.32 kg and less of active substance per hectare, scored visually after about 3 weeks
Source text: 1. Pre-Emergence Herbicidal Effect and Crop Plant Compatibility
Seeds of monocotyledonous or dicotyledonous weed plants or crop plants are placed in sandy loam in wood-fiber pots and covered with soil. The compounds according to the invention, formulated in the form of wettable powders (WP), are then applied as aqueous suspension at a water application rate of 600 l/ha (converted) with the addition of 0.2% of wetting agent to the surface of the covering soil.
After the treatment, the pots are placed in a greenhouse and kept under good growth conditions for the test plants. After about 3 weeks, the effect of the preparations is scored visually in comparison with untreated controls (herbicidal effect in percent (%): 100% activity=the plants have died, 0% activity=like control plants).

[2] = test system: harmful plants such as Echinochloa crus galli, Lolium multiflorum, and Setaria viridis; assay: Post-emergence herbicidal effect, greenhouse pot test; type: in vivo, monocotyledonous and dicotyledonous weed plants; settings: post-emergence method, application rate of 0.32 kg and less of active substance per hectare, rated visually after about 3 weeks
Protocol: 2. Post-Emergence Herbicidal Effect and Crop Plant Compatibility
Seeds of monocotyledonous and dicotyledonous weed and crop plants are placed in sandy loam in wood-fiber pots, covered with soil and cultivated in a greenhouse under good growth conditions. 2 to 3 weeks after sowing, the test plants are treated at the one-leaf stage. The compounds according to the invention, formulated in the form of wettable powders (WP), are then sprayed as aqueous suspension at a water application rate of 600 l/ha (converted) with the addition of 0.2% of wetting agent onto the green parts of the plants. After the test plants have been kept in the greenhouse under optimum growth conditions for about 3 weeks, the activity of the preparations is rated visually in comparison to untreated controls (herbicidal activity in percent (%): 100% activity=the plants have died, 0% activity=like control plants).

Structure (SMILES)	herbicidal activity against harmful plants [1]	herbicidal activity against harmful plants [2]
Cn1nc(C(F)(F)F)c(C[S+]([O-])c2ncc(I)o2)c1OC(F)F (centres unmarked) [Compound No. 1034, 5-Iodo-2-({[5-(difluoromethoxy)-1-methyl-3-(trifluoromethyl)-1H-pyrazol-4-yl]methyl}sulfinyl)-1,3-oxazole]	very good herbicidal activity	–
Cn1nc(C(F)(F)F)c(C[S@+]([O-])c2ncco2)c1OC(F)F [compound 2285, 2-[(S)-{[5-(Difluoromethoxy)-1-methyl-3-(trifluoromethyl)-1H-pyrazol-4-yl]methyl}sulfinyl]-1,3-oxazole]	very good herbicidal activity	very good herbicidal activity
Cn1nc(C(F)(F)F)c(C[S+]([O-])c2ncco2)c1C(F)(F)F (centres unmarked) [Compound No. 230, 2-({[1-Methyl-3,5-bis(trifluoromethyl)-1H-pyrazol-4-yl]methyl}sulfinyl)-1,3-oxazole]	very good herbicidal activity	very good herbicidal activity
Cn1nc(C(F)(F)F)c(CS(=O)(=O)c2ncc(Br)o2)c1OC(F)F [Compound No. 789, 5-Bromo-2-({[5-(difluoromethoxy)-1-methyl-3-(trifluoromethyl)-1H-pyrazol-4-yl]methyl}sulfonyl)-1,3-oxazole]	very good herbicidal activity	–
Cn1nc(C(F)(F)F)c(CS(=O)(=O)c2ncco2)c1OC(F)F [compound 51, 2-({[5-(Difluoromethoxy)-1-methyl-3-(trifluoromethyl)-1H-pyrazol-4-yl]methyl}sulfonyl)-1,3-oxazole]	very good herbicidal activity	very good herbicidal activity
Cn1nc(C(F)(F)F)c(C[S+]([O-])c2ncco2)c1OC(F)F (racemic) [compound 50, 2-({[5-(Difluoromethoxy)-1-methyl-3-(trifluoromethyl)-1H-pyrazol-4-yl]methyl}sulfinyl)-1,3-oxazole]	very good herbicidal activity	very good herbicidal activity
Cn1nc(C(F)(F)F)c(C[S@+]([O-])c2ncc(Br)o2)c1OC(F)F [Compound No. 2531]	very good herbicidal activity	–
Cn1nc(C(F)(F)F)c(C[S+]([O-])c2ncc(Cl)o2)c1OC(F)F (centres unmarked) [Compound No. 542, 5-Chloro-2-({[5-(difluoromethoxy)-1-methyl-3-(trifluoromethyl)-1H-pyrazol-4-yl]methyl}sulfinyl)-1,3-oxazole]	very good herbicidal activity	very good herbicidal activity
Cn1nc(C(F)(F)F)c(C[S+]([O-])c2ncco2)c1Cl (centres unmarked) [Compound No. 35, 2-({[5-(Chloro)-1-methyl-3-(trifluoromethyl)-1H-pyrazol-4-yl]methyl}sulfinyl)-1,3-oxazole]	very good herbicidal activity	very good herbicidal activity
Cn1nc(C(F)(F)F)c(C[S@+]([O-])c2ncc(Cl)o2)c1OC(F)F [Compound No. 2449]	very good herbicidal activity	–
Cn1nc(C(F)(F)F)c(C[S+]([O-])c2ncc(Br)o2)c1OC(F)F (centres unmarked) [Compound No. 788, 5-Bromo-2-({[5-(difluoromethoxy)-1-methyl-3-(trifluoromethyl)-1H-pyrazol-4-yl]methyl}sulfinyl)-1,3-oxazole]	very good herbicidal activity	–
